Laboratory results from patent EP0185961A2, “1-Phenyl-imidazole-5-carboxylic acid derivatives, process for their preparation and their use as growth regulators” (HOECHST AKTIENGESELLSCHAFT, priority 1984, dated 1986).

Legend:
Reispflanzen [1] = assay: Growth inhibition in paddy rice, small plots; conditions: Oryza sativa, 504 h, read-out: Wuchsshemmung (%)
Source text: (§4) Reispflanzen werden in Kleinparzellen (2 m x 2 m) angezogen und im Stadium der maximalen Bestockung mit erfindungsgemäßen Verbindungen behandelt. Die Substanzen werden sowohl durch Spritzung appliziert als auch in das Wasser gegeben.
(§5) 3 Wochen nach der Behandlung wird bei allen Pflanzen der Zuwachs gemessen und die Wuchshemmung in % des Zuwachses der Kontrollpflanzen berechnet. Es wird außerdem auf eine mögliche phytotoxische Wirkung der Verbindungen geachtet.
(§6) Die Wuchshemmung wird als prozentualer Wert ermittelt, wobei 100% den Stillstand des Wachstums und 0% ein Wachstum entsprechend dem der unbehandelten Kontrollpflanzen bedeuten.

Weizen = assay: Growth inhibition in cereals, greenhouse tray test, sprayed at 3-leaf stage; format: in vivo; conditions: % of growth increment of untreated controls (100% = growth standstill), read-out: Wuchsshemmung in % bei Weizen; for pest or weed control at 1250 g/ha: 1,25 kg/ha; for pest or weed control at 2500 g/ha: 2,5 kg/ha
Source text: (§1) In Schalenversuchen im Gewächshaus werden junge Getreidepflanzen (Weizen, Gerste, Roggen) im 3-Blattstadium mit erfindungsgemäßen Verbindungen in verschiedenen Wirkstoffkonzentrationen (kg/ha) tropfnaß gespritzt. […]

Roggen = assay: as above; format: in vivo; conditions: % of growth increment of untreated controls, read-out: Wuchsshemmung in % bei Roggen; for pest or weed control at 1250 g/ha: 1,25 kg/ha; for pest or weed control at 2500 g/ha: 2,5 kg/ha
Source text: as §1

[2] = test system: Getreidepflanzen (Weizen, Gerste, Roggen); assay: Phytotoxic effect observed in the cereal growth inhibition test; format: in vivo; conditions: cereals; one cell for 2,5 and 1,25 kg/ha
Source text: (§2) In Schalenversuchen im Gewächshaus werden junge Getreidepflanzen (Weizen, Gerste, Roggen) im 3-Blattstadium mit erfindungsgemäßen Verbindungen in verschiedenen Wirkstoffkonzentrationen (kg/ha) tropfnaß gespritzt.
(§3) Es wird außerdem die phytotoxische Wirkung der Verbindung beobachtet.

Gerste = assay: Growth inhibition in cereals, greenhouse tray test, sprayed at 3-leaf stage; format: in vivo; conditions: % of growth increment of untreated controls, read-out: Wuchsshemmung in % bei Gerste; for pest or weed control at 1250 g/ha: 1,25 kg/ha; for pest or weed control at 2500 g/ha: 2,5 kg/ha
Source text: as §2, §3

Reispflanzen [3] = conditions: in vivo
Source text: as §4, §5, §6

Sojabohnen [4] = conditions: in vivo
Source text: (§7) Etwa 10 cm große Sojabohnen werden mit den Wirkstoffzubereitungen tropfnaß bespritzt. Nach 3 Wochen wird bonitiert.
as §6

Sojabohnen [5] = assay: Growth inhibition in soybeans; conditions: Glycine max, 504 h, read-out: Wuchsshemmung (%)
Source text: as §7, §6

Compound `CCc1cccc(CC)c1-n1cncc1C(=O)ON=C(C)C1CC1` [Beispiel 45] has a pest or weed control at 620 g/ha (Reispflanzen [1]) of 13%, a pest or weed control at 1250 g/ha (Reispflanzen [1]) of 19% and a pest or weed control at 1250 g/ha (Weizen) of 11%. The pest or weed control at 2500 g/ha (Weizen) was 19%, the pest or weed control at 1250 g/ha (Roggen) was 15% and the pest or weed control at 2500 g/ha (Roggen) was 22%. For the same compound, the “Phytotox. Wirkung” value [2] was “keine Schäden”, the pest or weed control at 1250 g/ha (Gerste) was 15% and the pest or weed control at 2500 g/ha (Gerste) was 32%. For the same compound, the “Phytotox. Wirkung” value (Reispflanzen [3]) was “keine Schäden”, the “Phytotox. Wirkung” value (Sojabohnen [4]) was “keine Schäden” and the pest or weed control at 2500 g/ha (Sojabohnen [5]) was 18%.

In the case of `CCc1cccc(CC)c1-n1cncc1C(=O)ON=C1CCCCC1` [Beispiel 51], the pest or weed control at 620 g/ha (Reispflanzen [1]) is reported as 19%, the pest or weed control at 1250 g/ha (Reispflanzen [1]) is reported as 26% and the pest or weed control at 1250 g/ha (Weizen) is reported as 16%. The pest or weed control at 2500 g/ha (Weizen) was 25%, the pest or weed control at 1250 g/ha (Roggen) was 20% and the pest or weed control at 2500 g/ha (Roggen) was 27%. The “Phytotox. Wirkung” value [2] was “keine Schäden”, the pest or weed control at 1250 g/ha (Gerste) was 18% and the pest or weed control at 2500 g/ha (Gerste) was 37%. For the same compound, the “Phytotox. Wirkung” value (Reispflanzen [3]) was “keine Schäden”, the “Phytotox. Wirkung” value (Sojabohnen [4]) was “keine Schäden” and the pest or weed control at 2500 g/ha (Sojabohnen [5]) was 24%.

`CCOC(=O)CSC(=O)c1cncn1-c1c(CC)cccc1CC` [Beispiel 54] was tested, and the pest or weed control at 620 g/ha (Reispflanzen [1]) was 14%, the pest or weed control at 1250 g/ha (Reispflanzen [1]) was 21% and the pest or weed control at 1250 g/ha (Weizen) was 13%. For the same compound, the pest or weed control at 2500 g/ha (Weizen) was 22%, the pest or weed control at 1250 g/ha (Roggen) was 18% and the pest or weed control at 2500 g/ha (Roggen) was 24%. The “Phytotox. Wirkung” value [2] was “keine Schäden”, the pest or weed control at 1250 g/ha (Gerste) was 19% and the pest or weed control at 2500 g/ha (Gerste) was 33%. For the same compound, the “Phytotox. Wirkung” value (Reispflanzen [3]) was “keine Schäden”, the “Phytotox. Wirkung” value (Sojabohnen [4]) was “keine Schäden” and the pest or weed control at 2500 g/ha (Sojabohnen [5]) was 19%.

Compound `CCc1cccc(CC)c1-n1cncc1C(=O)NCC#N` [Beispiel 57] has a pest or weed control at 620 g/ha (Reispflanzen [1]) of 13%, a pest or weed control at 1250 g/ha (Reispflanzen [1]) of 20% and a pest or weed control at 1250 g/ha (Weizen) of 12%. The pest or weed control at 2500 g/ha (Weizen) was 23%, the pest or weed control at 1250 g/ha (Roggen) was 17% and the pest or weed control at 2500 g/ha (Roggen) was 23%. The “Phytotox. Wirkung” value [2] was “keine Schäden”, the pest or weed control at 1250 g/ha (Gerste) was 18% and the pest or weed control at 2500 g/ha (Gerste) was 31%. The “Phytotox. Wirkung” value (Reispflanzen [3]) was “keine Schäden”, the “Phytotox. Wirkung” value (Sojabohnen [4]) was “keine Schäden” and the pest or weed control at 2500 g/ha (Sojabohnen [5]) was 18%.

`CCc1cccc(CC)c1-n1cncc1C(=O)NCC(=O)O` [Beispiel 60] was tested, and the pest or weed control at 620 g/ha (Reispflanzen [1]) was 13%, the pest or weed control at 1250 g/ha (Reispflanzen [1]) was 21% and the pest or weed control at 1250 g/ha (Weizen) was 13%. The pest or weed control at 2500 g/ha (Weizen) was 23%, the pest or weed control at 1250 g/ha (Roggen) was 17% and the pest or weed control at 2500 g/ha (Roggen) was 24%. For the same compound, the “Phytotox. Wirkung” value [2] was “keine Schäden”, the pest or weed control at 1250 g/ha (Gerste) was 19% and the pest or weed control at 2500 g/ha (Gerste) was 32%. The “Phytotox. Wirkung” value (Reispflanzen [3]) was “keine Schäden”, the “Phytotox. Wirkung” value (Sojabohnen [4]) was “keine Schäden” and the pest or weed control at 2500 g/ha (Sojabohnen [5]) was 21%.

`CCc1cccc(CC)c1-n1cncc1C(=O)NCC(=O)OC` [Beispiel 61] was tested, and the pest or weed control at 620 g/ha (Reispflanzen [1]) was 13%, the pest or weed control at 1250 g/ha (Reispflanzen [1]) was 20% and the pest or weed control at 1250 g/ha (Weizen) was 13%. It also gave a pest or weed control at 2500 g/ha (Weizen) of 23%, a pest or weed control at 1250 g/ha (Roggen) of 18% and a pest or weed control at 2500 g/ha (Roggen) of 25%. For the same compound, the “Phytotox. Wirkung” value [2] was “keine Schäden”, the pest or weed control at 1250 g/ha (Gerste) was 19% and the pest or weed control at 2500 g/ha (Gerste) was 31%. The “Phytotox. Wirkung” value (Reispflanzen [3]) was “keine Schäden”, the “Phytotox. Wirkung” value (Sojabohnen [4]) was “keine Schäden” and the pest or weed control at 2500 g/ha (Sojabohnen [5]) was 17%.

In the case of `CCc1cccc(CC)c1-n1cncc1C(=O)NN` [Beispiel 65], the pest or weed control at 620 g/ha (Reispflanzen [1]) is reported as 14%, the pest or weed control at 1250 g/ha (Reispflanzen [1]) is reported as 21% and the pest or weed control at 1250 g/ha (Weizen) is reported as 14%. It also gave a pest or weed control at 2500 g/ha (Weizen) of 21%, a pest or weed control at 1250 g/ha (Roggen) of 18% and a pest or weed control at 2500 g/ha (Roggen) of 24%. For the same compound, the “Phytotox. Wirkung” value [2] was “keine Schäden”, the pest or weed control at 1250 g/ha (Gerste) was 19% and the pest or weed control at 2500 g/ha (Gerste) was 29%. The “Phytotox. Wirkung” value (Reispflanzen [3]) was “keine Schäden”, the “Phytotox. Wirkung” value (Sojabohnen [4]) was “keine Schäden” and the pest or weed control at 2500 g/ha (Sojabohnen [5]) was 17%.
